Columns and labels:
plasmin (pig) = plasmin (pig) (Sus scrofa, UniProt P06867); assay: Km, Vmax and Vmax/Km of substrates for plasmin (pig); assay type: biochemical, Porcine (pig); conditions: for Vmax (× 10^-7): TABLE 2, CHA substrates, plasmin (pig), 2,6-xylenol 615 nm; for Relative ratio: TABLE 2, V/Km of each sample divided by that of S2251 (so in the source)
Thrombin (TH) = Thrombin (TH) (Bos taurus, UniProt P00735); assay type: biochemical, Cow; conditions: TABLE 4, CHA substrates; So = 0.54; pH 8.4; 37° C., 10 minutes; 1.0 NIH/ml
Sequence of Thrombin (TH) (P00735 44-625): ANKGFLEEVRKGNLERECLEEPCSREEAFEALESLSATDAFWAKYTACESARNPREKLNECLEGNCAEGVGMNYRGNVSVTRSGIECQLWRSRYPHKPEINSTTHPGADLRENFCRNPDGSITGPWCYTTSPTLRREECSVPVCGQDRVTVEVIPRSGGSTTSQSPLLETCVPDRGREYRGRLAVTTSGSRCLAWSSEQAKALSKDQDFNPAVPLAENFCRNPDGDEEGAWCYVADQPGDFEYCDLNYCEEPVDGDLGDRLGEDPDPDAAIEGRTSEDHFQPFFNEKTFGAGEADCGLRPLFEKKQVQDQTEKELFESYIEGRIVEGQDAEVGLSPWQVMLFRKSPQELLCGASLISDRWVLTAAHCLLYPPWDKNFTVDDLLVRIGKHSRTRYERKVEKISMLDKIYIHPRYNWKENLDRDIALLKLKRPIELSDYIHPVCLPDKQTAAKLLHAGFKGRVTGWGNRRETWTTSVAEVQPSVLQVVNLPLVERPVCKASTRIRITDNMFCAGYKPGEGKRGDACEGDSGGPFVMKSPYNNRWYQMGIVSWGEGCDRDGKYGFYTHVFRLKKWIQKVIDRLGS
Protocol: (§1) The specificities of the novelly synthesized substrates were tested by reacting them with various enzymes respectively.
(§2) (1) Substrate solution concentration: 35 mmole/liter H2 O
(§3) (2) Buffer: Tris-hydrochloric acid buffer 50 mmole/l, NaCl 150 mmole/l (0.875%) was employed, and the pH for reaction was as follows depending on the enzyme.
(§4) 2,6-Xylenol 7.0 mmole+NaIO4 1.5 mmole/0.2N KOH
(§5) 0.5 ml of the buffer solution and 0.05 ml of the enzyme reagent were taken into a silicon-treated hard glass test tube or a plastic test tube, and preheated in a constant temperature bath at 37° C. for 5 minutes. Thereafter, 0.1 ml of the substrate solution was added to effect the enzymatic reaction at 37° C. for 10 minutes. Exactly after 10 minutes, 2.5 ml of the reaction terminating solution or the terminating and color developing reagent solution was added to terminate the enzymatic reaction, and after allowing to stand at 25° C. for 10 minutes, the absorbance at 405 nm or 645 nm was measured, in which [drawing 49]

Plasmin (PL) = Plasmin (PL) (Sus scrofa, UniProt P06867); assay type: biochemical, Pig; conditions: TABLE 4, CHA substrates; So = 0.54; pH 7.4; 37° C., 10 minutes; 0.32 CU/ml
Sequence of Plasmin (PL) (P06867 97-809): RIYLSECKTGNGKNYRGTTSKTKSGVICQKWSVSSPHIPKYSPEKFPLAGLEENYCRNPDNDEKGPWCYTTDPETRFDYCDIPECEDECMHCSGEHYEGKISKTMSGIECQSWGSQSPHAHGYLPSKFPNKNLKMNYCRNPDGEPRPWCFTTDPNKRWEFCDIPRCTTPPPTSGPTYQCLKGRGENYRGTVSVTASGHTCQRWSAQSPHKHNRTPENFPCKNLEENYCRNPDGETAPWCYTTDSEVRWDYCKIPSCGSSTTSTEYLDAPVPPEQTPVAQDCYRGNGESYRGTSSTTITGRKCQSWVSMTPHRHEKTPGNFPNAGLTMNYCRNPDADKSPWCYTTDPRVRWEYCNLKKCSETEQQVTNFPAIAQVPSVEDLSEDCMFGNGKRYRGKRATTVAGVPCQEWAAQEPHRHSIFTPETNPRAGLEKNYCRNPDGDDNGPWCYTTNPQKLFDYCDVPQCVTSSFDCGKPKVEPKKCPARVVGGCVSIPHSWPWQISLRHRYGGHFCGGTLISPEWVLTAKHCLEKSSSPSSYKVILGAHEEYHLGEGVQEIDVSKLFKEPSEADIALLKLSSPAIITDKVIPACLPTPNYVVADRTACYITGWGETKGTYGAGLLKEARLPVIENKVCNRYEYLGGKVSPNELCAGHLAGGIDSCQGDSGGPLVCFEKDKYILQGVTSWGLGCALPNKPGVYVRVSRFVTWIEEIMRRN
Protocol: as §2, §3
Plasmin Pig Sigma (U.S.A.)
as §5

Kallikrein (KL) = Kallikrein (KL) (Sus scrofa, UniProt P00752); assay type: biochemical, Pig; conditions: TABLE 4, CHA substrates; So = 0.54; pH 7.9; 37° C., 10 minutes; 1.0 BAEE-U/ml
Sequence of Kallikrein (KL) (P00752 8-246): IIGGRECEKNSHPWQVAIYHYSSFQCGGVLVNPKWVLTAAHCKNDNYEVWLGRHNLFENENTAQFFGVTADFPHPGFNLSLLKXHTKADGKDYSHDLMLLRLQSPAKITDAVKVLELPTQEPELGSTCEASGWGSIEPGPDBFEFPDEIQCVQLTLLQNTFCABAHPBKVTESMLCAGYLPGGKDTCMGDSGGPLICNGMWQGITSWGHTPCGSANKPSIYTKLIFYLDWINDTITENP
Protocol: as §1, §2, §3, §4, §5

Factor-Xa (FXa) = Factor-Xa (FXa) (Bos taurus, UniProt P00743); assay type: biochemical, Cow; conditions: TABLE 4, CHA substrates; So = 0.54; pH 8.4; 37° C., 10 minutes; 0.4 U/ml
Sequence of Factor-Xa (FXa) (P00743 41-180): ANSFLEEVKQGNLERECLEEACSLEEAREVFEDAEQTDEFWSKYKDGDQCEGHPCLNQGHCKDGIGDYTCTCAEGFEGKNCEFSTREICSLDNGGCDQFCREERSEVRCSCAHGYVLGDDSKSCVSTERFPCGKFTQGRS
Sequence of Factor-Xa (FXa) (P00743 234-492): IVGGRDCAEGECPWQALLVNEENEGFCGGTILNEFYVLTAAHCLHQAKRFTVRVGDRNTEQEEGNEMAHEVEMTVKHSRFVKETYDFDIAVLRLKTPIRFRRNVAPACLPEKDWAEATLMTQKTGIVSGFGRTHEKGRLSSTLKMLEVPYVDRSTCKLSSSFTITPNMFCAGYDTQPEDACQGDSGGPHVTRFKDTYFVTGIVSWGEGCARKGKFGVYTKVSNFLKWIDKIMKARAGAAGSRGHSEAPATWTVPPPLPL
Protocol: as §1, §2, §3, §4, §5

Urokinase (UK) = Urokinase (UK) (Homo sapiens, UniProt P00749); assay type: biochemical; conditions: TABLE 4, CHA substrates; So = 0.54; pH 8.2; 37° C., 10 minutes; 1000 IU/ml
Protocol: as §1, §2, §3, §4, §5

Sequence of plasmin (pig) (P06867 97-809): as the sequence (P06867 97-809) above

Vmax (× 10^-7) (plasmin (pig)) | Relative ratio (plasmin (pig)) | Selectivity TH, absorbance (O.D.) at 645 nm (Thrombin (TH)) | Selectivity PL, absorbance (O.D.) at 645 nm (Plasmin (PL)) | Selectivity KL, absorbance (O.D.) at 645 nm (Kallikrein (KL)) | Selectivity FXa, absorbance (O.D.) at 645 nm (Factor-Xa (FXa)) | Selectivity UK, absorbance (O.D.) at 645 nm (Urokinase (UK)) | Compound
3.556 × 10^-7 | 1.000 | 0 O.D. | 0.013 O.D. | 0.002 O.D. | 0.002 O.D. | 0 O.D. | CC(C)C[C@H](NC(=O)[C@H](N)C(C)C)C(=O)N[C@@H](CCCCN)C(=O)Nc1ccc(O)c(C(=O)O)c1 [NPC-1, HD-ValLeuLysCHA.2HBr]
8.266 × 10^-7 | 11.811 | 0.002 O.D. | 0.090 O.D. | 0.006 O.D. | 0.004 O.D. | 0.002 O.D. | CC(C)[C@@H](N)C(=O)N[C@@H](Cc1ccccc1)C(=O)N[C@@H](CCCCN)C(=O)Nc1ccc(O)c(C(=O)O)c1 [NPC-2, HD-ValPheLysCHA.2HCl]
7.506 × 10^-7 | 30.432 | 0 O.D. | 0.096 O.D. | 0.004 O.D. | 0.002 O.D. | 0 O.D. | NCCCC[C@@H](N)C(=O)N[C@@H](Cc1ccccc1)C(=O)N[C@@H](CCCCN)C(=O)Nc1ccc(O)c(C(=O)O)c1 [NPC-3]
10.940 × 10^-7 | 39.351 | 0.001 O.D. | 0.144 O.D. | 0.006 O.D. | 0.002 O.D. | 0 O.D. | CC(=O)NCCCC[C@@H](N)C(=O)N[C@@H](Cc1ccccc1)C(=O)N[C@@H](CCCCN)C(=O)Nc1ccc(O)c(C(=O)O)c1 [NPC-4, HD-Lys(AC)PheLysCHA.2HCl]
3.159 × 10^-7 | 9.739 | 0 O.D. | 0.051 O.D. | 0.001 O.D. | 0.002 O.D. | 0 O.D. | Cc1ccc(S(=O)(=O)NCCCC[C@H](N)C(=O)N[C@@H](Cc2ccccc2)C(=O)N[C@@H](CCCCN)C(=O)Nc2ccc(O)c(C(=O)O)c2)cc1 [NPC-5, HL-Lys(Tos)PheLysCHA.2HCl]
11.670 × 10^-7 | 137.973 | 0 O.D. | 0.147 O.D. | 0.007 O.D. | 0.001 O.D. | 0 O.D. | Cc1ccc(C(=O)NCCCC[C@@H](N)C(=O)N[C@@H](Cc2ccccc2)C(=O)N[C@@H](CCCCN)C(=O)Nc2ccc(O)c(C(=O)O)c2)cc1 [NPC-6, HD-Lys(Toc)PheLysCHA.2HCl]
29.417 × 10^-7 | 128.468 | 0 O.D. | 0.420 O.D. | 0.007 O.D. | 0.001 O.D. | 0 O.D. | Cc1ccc(S(=O)(=O)NCCCC[C@@H](N)C(=O)N[C@@H](Cc2ccccc2)C(=O)N[C@@H](CCCCN)C(=O)Nc2ccc(O)c(C(=O)O)c2)cc1 [NPC-7, 2HCl.H-D-Lys(ToS)-L-Phe-L-Lys-CHA]
30.814 × 10^-7 | 154.748 | 0 O.D. | 0.498 O.D. | 0.011 O.D. | 0.002 O.D. | 0.002 O.D. | NCCCC[C@H](NC(=O)[C@H](Cc1ccccc1)NC(=O)[C@H](N)CCCCNS(=O)(=O)c1ccc2ccccc2c1)C(=O)Nc1ccc(O)c(C(=O)O)c1 [NPC-8, HD-Lys(NaS)PheLysCHA.2HCl]
13.827 × 10^-7 | 38.270 | 0 O.D. | 0.120 O.D. | 0.027 O.D. | 0.001 O.D. | 0 O.D. | NCCCC[C@H](NC(=O)[C@H](Cc1ccccc1)NC(=O)[C@H](N)CCCCNC(=O)c1ccc2ccccc2c1)C(=O)Nc1ccc(O)c(C(=O)O)c1 [NPC-9, HD-Lys(NaC)PheLysCHA.2HCl]
28.445 × 10^-7 | 94.369 | 0 O.D. | 0.344 O.D. | 0.010 O.D. | 0.002 O.D. | 0.001 O.D. | Cc1cc(C)c(S(=O)(=O)NCCCC[C@@H](N)C(=O)N[C@@H](Cc2ccccc2)C(=O)N[C@@H](CCCCN)C(=O)Nc2ccc(O)c(C(=O)O)c2)c(C)c1 [NPC-10, HD-Lys(Mst)PheLysCHA.2HCl]
17.018 × 10^-7 | 99.532 | 0.001 O.D. | 0.277 O.D. | 0.012 O.D. | 0.003 O.D. | 0.003 O.D. | Cc1ccc(S(=O)(=O)Oc2ccc(C[C@@H](N)C(=O)N[C@@H](Cc3ccccc3)C(=O)N[C@@H](CCCCN)C(=O)Nc3ccc(O)c(C(=O)O)c3)cc2)cc1 [NPC-11, HD-Tyr(Tos)PheLysCHA.2HCl]
25.679 × 10^-7 | 23.135 | 0.001 O.D. | 0.051 O.D. | 0.007 O.D. | 0.002 O.D. | 0.001 O.D. | Cc1ccc(S(=O)(=O)NCCCC[C@@H](N)C(=O)N[C@@H](CC(C)C)C(=O)N[C@@H](CCCCN)C(=O)Nc2ccc(O)c(C(=O)O)c2)cc1 [NPC-12, HD-Lys(Tos)LeuLysCHA.2HBr]
17.991 × 10^-7 | 11.225 | 0.002 O.D. | 0.041 O.D. | 0.004 O.D. | 0.001 O.D. | 0.001 O.D. | Cc1ccc(S(=O)(=O)Oc2ccc(C[C@@H](N)C(=O)N[C@@H](CC(C)C)C(=O)N[C@@H](CCCCN)C(=O)Nc3ccc(O)c(C(=O)O)c3)cc2)cc1 [NPC-13, HD-Tyr(Tos)LeuLysCHA.2HCl]
37.927 × 10^-7 | 64.180 | 0 O.D. | 0.480 O.D. | 0.010 O.D. | 0.002 O.D. | 0 O.D. | NCCCC[C@H](NC(=O)[C@H](Cc1ccccc1)NC(=O)[C@H](N)CCCCNS(=O)(=O)c1ccccc1)C(=O)Nc1ccc(O)c(C(=O)O)c1 [NPC-15]
15.803 × 10^-7 | 23.874 | 0 O.D. | 0.192 O.D. | 0.002 O.D. | 0 O.D. | 0 O.D. | NCCCC[C@H](NC(=O)[C@H](Cc1ccccc1)NC(=O)[C@H](N)CCCCNS(=O)(=O)c1cccc2ccccc12)C(=O)Nc1ccc(O)c(C(=O)O)c1 [NPC-17]
35.252 × 10^-7 | 58.558 | 0 O.D. | 0.392 O.D. | 0.019 O.D. | 0.002 O.D. | 0.001 O.D. | Cc1ccc(S(=O)(=O)NCCC[C@@H](N)C(=O)N[C@@H](Cc2ccccc2)C(=O)N[C@@H](CCCCN)C(=O)Nc2ccc(O)c(C(=O)O)c2)cc1 [NPC-18]

Compound | Vmax (× 10^-7) (plasmin (pig)) | Relative ratio (plasmin (pig)) | Selectivity TH, absorbance (O.D.) at 645 nm (Thrombin (TH)) | Selectivity PL, absorbance (O.D.) at 645 nm (Plasmin (PL)) | Selectivity KL, absorbance (O.D.) at 645 nm (Kallikrein (KL)) | Selectivity FXa, absorbance (O.D.) at 645 nm (Factor-Xa (FXa)) | Selectivity UK, absorbance (O.D.) at 645 nm (Urokinase (UK))
NCCCC[C@H](NC(=O)[C@H](Cc1ccccc1)NC(=O)[C@H](N)CCCCNC(=O)c1ccccc1)C(=O)Nc1ccc(O)c(C(=O)O)c1 [NPC-14] | 33.794 × 10^-7 | 91.036 | 0 O.D. | 0.417 O.D. | 0.016 O.D. | 0.002 O.D. | 0.001 O.D.
NCCCC[C@H](NC(=O)[C@H](Cc1ccccc1)NC(=O)[C@H](N)CCCCNC(=O)Cc1ccccc1)C(=O)Nc1ccc(O)c(C(=O)O)c1 [NPC-16] | 26.986 × 10^-7 | 68.162 | 0 O.D. | 0.325 O.D. | 0.012 O.D. | 0.002 O.D. | 0.001 O.D.
